Results published in patent US9315458B2, “Nitrogen-containing heterocyclic compound” (Takeda Pharmaceutical Company Limited, priority 2014, dated 2016).

Molecular target: T1, human M1 receptor (hCHRM1) (Homo sapiens, UniProt P11229)
T1 construct: expressed in transfected cells
T1 sequence (P11229 1-460): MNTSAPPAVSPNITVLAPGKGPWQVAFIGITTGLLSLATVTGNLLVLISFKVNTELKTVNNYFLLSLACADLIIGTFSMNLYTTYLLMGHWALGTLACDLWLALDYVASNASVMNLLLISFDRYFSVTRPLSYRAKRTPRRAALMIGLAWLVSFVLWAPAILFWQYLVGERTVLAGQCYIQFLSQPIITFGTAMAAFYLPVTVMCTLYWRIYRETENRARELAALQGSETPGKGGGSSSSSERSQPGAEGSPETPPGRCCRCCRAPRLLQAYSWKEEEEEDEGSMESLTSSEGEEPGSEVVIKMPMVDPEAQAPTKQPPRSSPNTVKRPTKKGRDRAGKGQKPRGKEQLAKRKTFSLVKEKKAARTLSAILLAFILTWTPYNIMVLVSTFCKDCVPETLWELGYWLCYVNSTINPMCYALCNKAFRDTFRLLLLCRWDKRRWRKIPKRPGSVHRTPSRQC
Assay: Measurement of M1 receptor positive allosteric modulator (M1PAM) activity, calcium fluorescence (FLIPRtetra) with acetylcholine at EC20
Assay type: cell-based
Conditions: for activity (%) at 10 μM: 10 μM test compound, 100% = acetylcholine 1 μM, 0% = DMSO, acetylcholine at EC20; for EC50: inflection point of concentration-dependent curve, CHO-K1 cells expressing hCHRM1, acetylcholine at EC20 (final 0.6-0.8 nM), read-out: IP value
Protocol: The activity of a test compound in the presence of acetylcholine at EC20 concentration (final concentration 0.6-0.8 nM), which affords an action corresponding to about 20% of the maximum activity, was measured as PAM activity. The method is as follows. CHO-K1 cells stably expressing a human M1 receptor (hCHRM1) were plated on a 384-well black clear bottom plate (BD Falcon) at 5,000 cells/well, and cultured in an incubator at 37° C., 5% CO2 for 1 day. The medium in the cell plate was removed, and assay buffer A (Recording medium (DOJINDO LABORATORIES), 0.1% BSA (Wako Pure Chemical Industries, Ltd.), 2.5 μg/mL Fluo-4 AM (DOJINDO LABORATORIES), 0.08% Pluronic F127 (DOJINDO LABORATORIES), 1.25 mM probenecid (DOJINDO LABORATORIES)) containing a calcium indicator was added at 30 μL/well. The cells were left standing in the incubator at 37° C., 5% CO2 for 30 min, and further left standing at room temperature for 30 min. A test compound prepared by diluting with assay buffer B (HBSS (Invitrogen), 20 mM HEPES (Invitrogen), 0.1% BSA) containing 2.4-3.2 nM acetylcholine was added at 10 μL/well, and the fluorescence was measured by FLIPRtetra (Molecular Devices) for 1 min every 1 second. With the definition that the amount of change in the fluorescence on addition of acetylcholine (final concentration 1 μM) is 100% and that on addition of DMSO instead of a test compound is 0%, the activity (%) of the test compound was calculated, and the inflection point in the concentration-dependent curve of the test compound was calculated as IP values.

activity (%) at 10 μM	EC50	SMILES
103%	26 nM	Cc1c(Cc2ccc(-c3ccn(C)n3)cc2)cc2c(c1F)CN([C@H]1CCC[C@@H]1O)C2=O [Example 111, 4-fluoro-2-((1S,2S)-2-hydroxycyclopentyl)-5-methyl-6-(4-(1-methyl-1H-pyrazol-3-yl)benzyl)isoindolin-1-one]
100%	23 nM	Cc1c(Cc2ccc(-c3ccn(C)n3)cc2)cc2c(c1C)CN(C[C@@H]1CCCO1)C2=O [Example 109, 4,5-dimethyl-6-(4-(1-methyl-1H-pyrazol-3-yl)benzyl)-2-((2S)-tetrahydrofuran-2-ylmethyl)isoindolin-1-one]
97%	31 nM	Cc1cc2c(cc1Cc1ccc(-c3cn(C)nn3)cc1)C(=O)N(CC1CCCO1)C2 (stereo not drawn) [Example 49, 5-methyl-6-(4-(1-methyl-1H-1,2,3-triazol-4-yl)benzyl)-2-(tetrahydrofuran-2-ylmethyl)isoindolin-1-one]
102%	43 nM	O=C1c2cc(Cc3ccc(-n4cccn4)cc3)c(C3CC3)cc2CN1[C@H]1CCC[C@@H]1O (racemic) [Example 9, rac-5-cyclopropyl-2-(trans-2-hydroxycyclopentyl)-6-(4-(1H-pyrazol-1-yl)benzyl)isoindolin-1-one]
91%	7.7 nM	COc1c(Cc2ccc(-n3cccn3)cc2)cc2c(c1Cl)CN([C@H]1CCCC[C@@H]1O)C2=O (racemic) [Example 12, rac-4-chloro-2-(trans-2-hydroxycyclohexyl)-5-methoxy-6-(4-(1H-pyrazol-1-yl)benzyl)isoindolin-1-one]
100%	95 nM	CCc1cc2c(cc1Cc1ccc(-n3cccn3)cc1)C(=O)N(CC1CCCO1)C2 (stereo not drawn) [Example 58, 5-ethyl-6-(4-(1H-pyrazol-1-yl)benzyl)-2-(tetrahydrofuran-2-ylmethyl)isoindolin-1-one]
109%	86 nM	O=C1c2cc(Cc3ccc(-n4cccn4)cc3)c(Cl)cc2CN1[C@H]1CCCC[C@@H]1O (racemic) [Example 2, rac-5-chloro-2-(trans-2-hydroxycyclohexyl)-6-(4-(1H-pyrazol-1-yl)benzyl)isoindolin-1-one]
110%	32 nM	Cc1c(Cc2ccc(OC(F)F)cc2)cc2c(c1C)CN([C@H]1COCC[C@@H]1O)C2=O [Example 22, 1,5-anhydro-2,4-dideoxy-2-(6-(4-(difluoromethoxy)benzyl)-4,5-dimethyl-1-oxo-1,3-dihydro-2H-isoindol-2-yl)-L-threo-pentitol]
99%	3 nM	Cc1cc2c(cc1Cc1ccc(-c3cn(C)nn3)cc1)C(=O)N([C@H]1CCCC[C@@H]1O)C2 (racemic) [Example 47, rac-2-(trans-2-hydroxycyclohexyl)-5-methyl-6-(4-(1-methyl-1H-1,2,3-triazol-4-yl)benzyl)isoindolin-1-one]
91%	13 nM	Cc1c(Cc2ccc(-n3cccn3)cc2)cc2c(c1Cl)CN([C@H]1CCC[C@@H]1O)C2=O (racemic) [Example 102, rac-4-chloro-2-(trans-2-hydroxycyclopentyl)-5-methyl-6-(4-(1H-pyrazol-1-yl)benzyl)isoindolin-1-one]
91%	3.1 nM	CCc1cc2c(cc1Cc1ccc(-c3cn(C)nn3)cc1)C(=O)N([C@H]1CCC[C@@H]1O)C2 [Example 119, 5-ethyl-2-((1S,2S)-2-hydroxycyclopentyl)-6-(4-(1-methyl-1H-1,2,3-triazol-4-yl)benzyl)isoindolin-1-one]
106%	15 nM	COc1cc2c(cc1Cc1ccc(-n3cccn3)cc1)C(=O)N([C@H]1CCCC[C@@H]1O)C2 (racemic) [Example 3, rac-2-(trans-2-hydroxycyclohexyl)-5-methoxy-6-(4-(1H-pyrazol-1-yl)benzyl)isoindolin-1-one]
